This passage reports Kd results from article PMC7894523 (Chemistry (Weinheim an Der Bergstrasse, Germany), 2020).

The assay concerns the target T1, 15N-labeled carbohydrate recognition domain (CRD) of DC-SIGN (Homo sapiens, UniProt Q9NNX6).
T1 sequence (Q9NNX6 250-404 limits assumed): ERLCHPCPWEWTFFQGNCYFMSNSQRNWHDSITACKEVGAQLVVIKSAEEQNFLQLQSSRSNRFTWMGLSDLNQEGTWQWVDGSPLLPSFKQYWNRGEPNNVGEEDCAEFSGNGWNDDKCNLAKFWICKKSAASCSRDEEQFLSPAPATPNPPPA
Kind of assay: 1H-15N HSQC titration, chemical shift perturbation. Format: binding.

In general, Kd refers to a measure of binding affinity in units of concentration. Regarding `CC(=O)N[C@H]1[C@H](O[C@H]2[C@H](O[C@@H]3O[C@@H](C)[C@@H](O)[C@@H](O)[C@@H]3O)[C@@H](NC(C)=O)[C@H](OCCCCCN)O[C@@H]2CO)O[C@H](CO)[C@H](O)[C@@H]1O` [compound 12, LDN-F], the Kd is 1500 ± 400 µM.
